Assay [1] relates to HT-29 cells. As to the kind of experiment: Smac mimetic plus pan-caspase inhibitor induced necrosis in HT-29 cells. The assay is classed as cell-based, human. The conditions noted are these: for cell death of HT-29 cells: Smac mimetic plus z-VAD or Q-VD-OPH co-treatment. How it is done: To verify that cell death seen in HT-29 cells was indeed necrosis, cells treated with either vehicle DMSO, or Smac mimetic plus z-VAD, were analyzed by electron microscopy (EM). […] No obvious apoptotic morphological changes were observed.
Since Smac mimetic induces apoptosis in certain tumor lines as a result of autocrine TNF-α (Petersen et al., 2007; Vince et al., 2007; Varfolomeev et al., 2007), we checked whether autocrine TNF-α is required for the observed necrosis in HT-29 cells. […] Moreover, exogenously added TNF-α augmented Smac mimetic plus z-VAD induced cell death and it did so in a dose dependent manner.

For assay [2], the target named is RIPK1/FADD/caspase-8 complex (Homo sapiens, UniProt Q13546). The assay can be described thus: Caspase-8 immunoprecipitation of RIPK1/FADD/caspase-8/RIP3 complex in HT-29 cells. It is filed as cell-based. As to conditions: co-treatment, anti-caspase-8 immunoprecipitation. As to the method:
Since RIPK1 forms a complex with caspase-8/FADD upon treatment with TNF-α plus Smac mimetic and the complex is stabilized with z-VAD (Petersen et al., 2007; Wang et al., 2008), we wondered whether it is the same complex that recruits RIP3. To check that directly, we immuno-precipitated caspase-8 and analyzed the composition of the immuno-complex by Western blotting. […] RIP3 continued to be recruited to the complex for up to 6 hours of treatment. Much less proteins were immuno-precipitated at 8 hours with this anti-caspase-8 antibody. This observation might reflect that a large percentage of cells were dying. […] This is consistent with the notion that Necrostatin-1 inhibits RIPK1 kinase activity, which is required for the formation of RIPK1/FADD/caspase-8 complex (Degterev et al., 2008; Wang et al., 2008).

Assay [3] has as its target RIP3/RIPK1 (Homo sapiens, UniProt Q13546). The assay can be described thus: RIP3 up-shift and RIPK1 co-immunoprecipitation in HT-29 cells under necrosis induction. The conditions noted are these: co-treatment during necrosis induction (TNF-α, Smac mimetic, z-VAD). It is filed as cell-based. How it is done:
To test whether endogenous RIP3 indeed interacts with RIPK1 upon necrosis induction, we treated HT-29 cells with TNF-α, Smac mimetic and z-VAD, followed by immuno-precipitation using an anti-RIPK1 antibody at different time points. […] Correlating with the shift, RIP3 was found in the RIPK1 immuno-complex starting at 4 hours of necrosis induction and peaked at 8 hours. The up-shift of RIP3 and its interaction with RIPK1 only occurred under necrosis-inducing conditions. The observed up-shift of RIP3 is most likely due to phosphorylation that depends on its own kinase activity. […] Moreover, the RIP3 band can be shifted down to the original position on SDS-PAGE gel with phosphatase treatment.
To further confirm the relevance of RIP3 up-shift and its induced interaction with RIPK1 to necrosis, HT-29 cells were co-treated with Necrostatin-1 during necrosis induction.

In assay [4] the test system is T98G cells. The assay can be described thus: Necrosis induction in T98G cells ectopically expressing RIP3. The assay is classed as cell-based, human. As to conditions: T98G cells expressing wild type RIP3, necrosis induction. From the text:
Since cells resistant to TNF-α induced necrotic death are also defective in RIP3 expression, we then tested whether ectopic expression of RIP3 converts these cells to sensitive ones. When wild type RIP3 was expressed in T98G cells, we saw marked cell death in these cells upon necrosis induction compared to vector transfection controls. […] Moreover, T98G cell death resulted from RIP3 expression was blocked by the necrosis inhibitor, Necrostatin-1. Similar effects were observed when RIP3 was expressed in HeLa cells, MCF-7 cells, and H2009 cells.

Assay [5] concerns L929 cells. The assay can be described thus: Necrotic cell death in L929 cells. It is filed as cell-based, mouse. From the text:
TNF-α induced necrosis has been most extensively studied in mouse fibrosarcoma L929 cells due to its unique ability to undergo necrosis in response to TNF-α, or z-VAD alone (Grooten et al., 1993; Vercammen et al., 1998; Degterev et al., 2005; Kim et al., 2007). To test whether RIP3 is required for necrosis this L929 cells, we knocked down RIP3 with three individual mouse siRNA oligoes. Cell death induced by z-VAD, or TNF-α alone or combination of the two was attenuated when RIP3 was knocked down in L929 cells. The efficacy of necrosis blockage of these oligoes correlated perfectly with the efficiency of RIP3 knockdown.

The target in assay [6] is T1, cIAP2 (Homo sapiens, UniProt Q13489).
T1 construct: endogenous in cells; host or cells: HT-29
As to the kind of experiment: cIAP2 degradation upon Smac mimetic treatment in HT-29 cells. The assay is classed as cell-based.

The test system of assay [7] is certain tumor cell lines. As to conditions: cited from earlier work.

RIP3/RIPK1, sequence (Q13546 whole entry): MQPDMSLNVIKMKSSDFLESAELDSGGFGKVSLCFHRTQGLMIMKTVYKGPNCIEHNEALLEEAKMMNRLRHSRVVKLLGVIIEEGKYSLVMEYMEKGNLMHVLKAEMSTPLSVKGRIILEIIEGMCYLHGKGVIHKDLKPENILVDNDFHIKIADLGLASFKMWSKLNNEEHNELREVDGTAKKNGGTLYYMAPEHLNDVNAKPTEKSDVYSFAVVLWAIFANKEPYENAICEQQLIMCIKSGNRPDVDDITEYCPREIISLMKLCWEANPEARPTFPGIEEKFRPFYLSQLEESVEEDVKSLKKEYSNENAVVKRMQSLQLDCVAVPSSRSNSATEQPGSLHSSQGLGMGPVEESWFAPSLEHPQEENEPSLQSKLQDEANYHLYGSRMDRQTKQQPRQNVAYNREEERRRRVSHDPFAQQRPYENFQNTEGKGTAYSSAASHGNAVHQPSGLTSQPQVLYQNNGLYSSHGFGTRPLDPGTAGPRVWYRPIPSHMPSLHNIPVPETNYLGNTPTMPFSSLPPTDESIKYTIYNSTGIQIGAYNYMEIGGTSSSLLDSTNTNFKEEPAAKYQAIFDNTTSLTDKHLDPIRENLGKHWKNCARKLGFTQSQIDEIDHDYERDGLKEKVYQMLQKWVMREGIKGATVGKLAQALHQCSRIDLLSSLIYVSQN
RIPK1/FADD/caspase-8 complex, sequence (Q13546 whole entry, one chain of several): as the sequence (Q13546 whole entry) above
T1 sequence (Q13489 whole entry): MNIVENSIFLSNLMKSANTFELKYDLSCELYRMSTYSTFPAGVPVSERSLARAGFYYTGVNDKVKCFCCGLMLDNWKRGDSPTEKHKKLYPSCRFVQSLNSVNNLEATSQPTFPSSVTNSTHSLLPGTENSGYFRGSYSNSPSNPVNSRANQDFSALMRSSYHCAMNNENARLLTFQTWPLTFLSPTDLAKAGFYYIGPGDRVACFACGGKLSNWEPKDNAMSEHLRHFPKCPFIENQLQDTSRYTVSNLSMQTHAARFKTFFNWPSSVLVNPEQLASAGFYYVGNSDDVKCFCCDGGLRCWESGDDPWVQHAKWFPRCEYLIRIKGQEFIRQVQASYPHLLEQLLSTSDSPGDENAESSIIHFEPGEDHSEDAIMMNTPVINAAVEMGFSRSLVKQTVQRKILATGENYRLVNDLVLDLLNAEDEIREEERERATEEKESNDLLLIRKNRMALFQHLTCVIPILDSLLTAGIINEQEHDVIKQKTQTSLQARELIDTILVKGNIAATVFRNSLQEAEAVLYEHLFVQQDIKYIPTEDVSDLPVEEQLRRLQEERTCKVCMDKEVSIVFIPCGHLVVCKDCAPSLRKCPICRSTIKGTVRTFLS

As to `CN1C(=O)C(Cc2c[nH]c3ccccc23)NC1=S` (stereo not drawn) [Necrostatin-1], the “effect on Smac mimetic plus z-VAD induced cell death” value in assay [1] (HT-29 cells, agent added to culture) was “cell death was prevented”. Further, the “formation of RIPK1/FADD/caspase-8 (RIP3) complexes” value in assay [2] is “none of these complexes were able to form efficiently”. Further, in assay [3], the “RIP3 interaction with RIPK1” value was “completely prevented” and the RIP3 up-shift entry is on record as “completely prevented”. Moreover, the “effect on T98G cell death resulting from RIP3 expression” value in assay [4] is given as “blocked”.

As to `CN[C@@H](C)C(=O)N[C@H](C(=O)N1CCC[C@H]1Cn1nnnc1Sc1ccccc1)C(C)OCC#CC#CCO[C@H](C)[C@H](NC(=O)[C@H](C)NC)C(=O)N1CCCC1Cn1nnnc1Sc1ccccc1` (stereo partly drawn) [Smac mimetic], the “cell death of HT-29 cells” value in assay [1] was “exacerbated cell death”. In addition, the “cell death in L929 cells” value in assay [5] was “accelerated cell death”. For the same compound, the cIAP2 degradation result in assay [6] is “accelerated degradation”.

Turning to Q-VD-OPH, in assay [1], the “cell death of HT-29 cells” value is reported as “exacerbated cell death”.

Consider TNF-α, for which the “effect of exogenously added TNF-α on Smac mimetic plus z-VAD induced cell death” value in assay [1] (HT-29 cells) was “augmented”.

For z-VAD, the “cell death of HT-29 cells” value in assay [1] is on record as “exacerbated cell death”. Moreover, in assay [7], the “effect on Smac mimetic induced apoptotic death” value was “completely blocked”.
